{"source": "patent US20250002854A1", "about": "“METHODS OF GENERATING POPULATIONS OF TUMOUR-INFILTRATING T CELLS” (LYTIX BIOPHARMA AS, priority 2016, published 2025)", "system": "A375 cells", "assay": "Confocal microscopy, internalization of fluorescence-labeled peptide", "assay_type": "cell-based, human", "protocol": "The A375 cell line A375 (ECACC, 88113005) is a human malignant melanoma derived from patient material, and was purchased from Public Health England (PHE Culture Collections, Porton Down, Salisbury, UK). Cells were maintained as monolayer cultures in high glucose […] DMEM supplemented with 10% FBS and 1% L-glutamine, but not as antibiotics (complete media). The cell line was grown in a humidified 5% CO2 atmosphere at 37° C., and was regularly tested for the presence of mycoplasma with MycoAlert (Lonza).\nFixed cells, fluorescence-labeled peptide—Subconfluential A375 cells were seeded at 8,000 cells/well as above, and transfected on the second day using the Lipofectamine LTX with Plus transfection reagents (Invitrogen) following the manufacturer's protocol. The mitochondria were labeled using the pDsRed2-Mito, and the nucleus was labeled using the GFP-Histon2B plasmid (Imaging Platform, University of Tromsø). A day after transfection, cells were washed twice with serum-free RPMI, and treated at different concentration and incubation periods with LTX-315 Pacific Blue or LTX-328 Pacific Blue. […] Control cells were treated with unlabeled LTX-315 and also with serum-free RPMI only. After incubation, cells were fixed with 4% paraformaldehyde in PBS, and the wells were covered with Prolong Gold antifade (Invitrogen). Cells were further analyzed by use of a Leica TCS SP5 confocal microscope, with a […] objective. Pacific Blue, GFP and Ds Red were excited using UV, with 488 and 561 lasers, and fluorescence channels were sequentially detected using the following band passes: UV: 420-480 nm (with attenuation), 488: 501-550 nm and 561: 576-676 nm.", "note": "Square brackets hold non-standard residues; d marks the D form. Ends that are not written are not given here. Dip = N[C@H](C(=O)O)C(c1ccccc1)c1ccccc1", "data": [{"substance": "KAQ[Dip]QKQAW-NH2 [LTX-328, reference compound]", "values": [{"measurement": "internalization of peptide", "setting": "3 μM, 60 min", "result": "not internalized"}, {"measurement": "internalization of Pacific Blue-labelled peptide", "setting": "A375 cells, 3 μM and 1.5 μM", "result": "did not demonstrate any internalization"}]}]}
